Assay results reported in US11339144B2 (Navitor Pharmaceuticals, Inc., priority 2017, dated 2022).
Where two headings read alike, the source gives them in different places.

Columns and labels:
[1] = molecular target: HA-GST-Rheb (GTP-γ-S loaded) activating mTORC1 (Homo sapiens (Human), UniProt Q15382); assay: Rheb-dependent in vitro kinase assay (Rheb-IVK; LanthaScreen or Western readout); format: biochemical
[2] = molecular target: Rheb (Homo sapiens (Human), UniProt Q15382); assay: Affinity Selection Mass Spectrometry (ASMS); format: binding; conditions: affinity (R3/R0) in Affinity Selection Mass Spectrometry assay
Sequence of Rheb (Q15382 1-169 limits assumed): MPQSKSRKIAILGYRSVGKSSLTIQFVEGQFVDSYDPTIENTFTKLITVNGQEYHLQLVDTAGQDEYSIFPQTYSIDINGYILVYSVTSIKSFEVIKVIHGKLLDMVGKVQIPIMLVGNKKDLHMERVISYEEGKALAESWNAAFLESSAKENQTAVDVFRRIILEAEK
Summary of the method: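 Human Rheb (60 μM) with GDP (180 μM) and each compound at 2 μM, protein-plus versus protein-minus, incubated 30 min at room temperature, then washed by 10 kDa ultrafiltration. Retained ligand was released with MeCN and detected by UPLC-Q-TOF MS.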

[3] = Rheb-dependent in vitro kinase assay, read-out: IVK IC50

Sequence of HA-GST-Rheb (GTP-γ-S loaded) activating mTORC1 (Q15382 1-181): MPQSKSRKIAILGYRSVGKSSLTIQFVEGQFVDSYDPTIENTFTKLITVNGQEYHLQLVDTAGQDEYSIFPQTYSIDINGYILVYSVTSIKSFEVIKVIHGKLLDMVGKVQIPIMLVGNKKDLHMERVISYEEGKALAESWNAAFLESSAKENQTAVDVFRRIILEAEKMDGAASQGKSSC

Compound	IC50 [1, 3] [µM]	ASMS (R3/R0) [2]	IC50 ([1]; LanthaScreen variation, Terbium labeled T46p4E-BP1 specific antibody, read-out: IC50 in the Rheb-IVK) [µM]	inhibition of mTORC1 activity in the Rheb-IVK ([1]; Western blot variation, anti 4E-BP1 and anti T37/46p4E-BP1)
OCc1cc2c(Oc3cccc(Cl)c3)cc(Cl)cc2[nH]1 [I-215, (6-chloro-4-(3-chlorophenoxy)-1H-indol-2-yl)methanol]	10 to 100	B (an affinity (R3/R0) between 100% and 20%)		
OCc1cc2c(Oc3ccccc3Cl)cc(Cl)cc2[nH]1 [I-216, (6-chloro-4-(2-chlorophenoxy)-1H-indol-2-yl)methanol]	10 to 100	B (an affinity (R3/R0) between 100% and 20%)		
CC(O)c1cc2c(Br)cc(Oc3ccccc3)cc2[nH]1 (stereo not shown) [I-218, 1-(4-bromo-6-phenoxy-1H-indol-2-yl)ethanol]	10 to 100	B (an affinity (R3/R0) between 100% and 20%)		
Cn1ccc2c(Sc3ccc(Cl)cc3)cccc21 [I-222]	> 100	B (an affinity (R3/R0) between 100% and 20%)		
OCc1cc2c(Cl)cc(Oc3ccccc3)cc2n1Cc1nc[nH]n1 [I-226]	> 100	C (an affinity (R3/R0)<20%)		
OCc1cc2c(Br)cc(OCCCc3ccccc3)cc2[nH]1 [I-235, (4-Bromo-6-(3-phenylpropoxy)-1H-indol-2-yl)methanol]	10 to 100	B (an affinity (R3/R0) between 100% and 20%)		
OCc1cc2c(Br)cc(OCCc3ccccc3)cc2[nH]1 [I-236, (4-Bromo-6-phenethoxy-1H-indol-2-yl)methanol]	10 to 100	B (an affinity (R3/R0) between 100% and 20%)		
OCc1cc2c(Br)cc(Sc3ccccc3)cc2[nH]1 [I-237, (4-bromo-6-(phenylthio)-1H-indol-2-yl)methanol]	10 to 100	B (an affinity (R3/R0) between 100% and 20%)		
Brc1cc(Oc2ccccc2)cc2[nH]ccc12 [I-239, 4-bromo-6-phenoxy-1H-indole]	10 to 100	B (an affinity (R3/R0) between 100% and 20%)		
OCc1cc2c(Br)cc(OCc3ccccc3)cc2[nH]1 [I-241, (6-(Benzyloxy)-4-bromo-1H-indol-2-yl)methanol]	10 to 100	B (an affinity (R3/R0) between 100% and 20%)		
Clc1cccc(Sc2cccc3[nH]ccc23)c1 [I-243, 4-(3-chlorophenylthio)-1H-indole]	10 to 100	B (an affinity (R3/R0) between 100% and 20%)		
Clc1ccccc1Sc1cccc2[nH]ccc12 [I-244, 4-(2-chlorophenylthio)-1H-indole]	10 to 100	B (an affinity (R3/R0) between 100% and 20%)		
Clc1ccc(Sc2cccc3[nH]ccc23)cc1 [I-246, 4-(4-chlorophenylthio)-1H-indole]	10 to 100	C (an affinity (R3/R0)<20%)		
OCCCc1cc2c(Oc3ccccc3)c(Cl)ccc2[nH]1 [I-248, 3-(5-chloro-4-phenoxy-1H-indol-2-yl)propan-1-ol]	10 to 100	C (an affinity (R3/R0)<20%)		
OCc1cc2c(F)cc(Oc3ccccc3)cc2[nH]1 [I-249, (4-fluoro-6-phenoxy-1H-indol-2-yl)methanol]	10 to 100	C (an affinity (R3/R0)<20%)		
OCc1cc2c(Oc3ccccc3)c(Cl)c(Cl)cc2[nH]1 [I-250, (5,6-Dichloro-4-phenoxy-1H-indol-2-yl)methanol]	10 to 100	B (an affinity (R3/R0) between 100% and 20%)		
Clc1ccc(Cl)c(Oc2cccc3[nH]ccc23)c1 [I-251, 4-(2,5-Dichlorophenoxy)-1H-indole]	10 to 100	C (an affinity (R3/R0)<20%)		
OCc1cc2c(Cl)cc(Oc3ccccc3)cc2[nH]1 [I-252, (4-chloro-6-phenoxy-1H-indol-2-yl)methanol]	10 to 100	B (an affinity (R3/R0) between 100% and 20%)		
Clc1cccc(Oc2cccc3[nH]ccc23)c1Cl [I-254, 4-(2,3-Dichlorophenoxy)-1H-indole]	10 to 100	B (an affinity (R3/R0) between 100% and 20%)		
Clc1ccc(Oc2cccc3[nH]ccc23)c(Cl)c1 [I-255, 4-(2,4-Dichlorophenoxy)-1H-indole]	10 to 100	B (an affinity (R3/R0) between 100% and 20%)		
Clc1ccc2[nH]c(-c3cnco3)cc2c1Oc1ccccc1 [I-256, 5-(5-chloro-4-phenoxy-1H-indol-2-yl)oxazole]	10 to 100	B (an affinity (R3/R0) between 100% and 20%)		
OCCc1cc2c(Oc3ccccc3)c(Cl)ccc2[nH]1 [I-261, 2-(5-chloro-4-phenoxy-1H-indol-2-yl)ethanol]	10 to 100	C (an affinity (R3/R0)<20%)		
OCc1cc2c(Oc3ccc(Cl)cc3)cccc2[nH]1 [I-263, (4-(4-chlorophenoxy)-1H-indol-2-yl)methanol]	10 to 100	C (an affinity (R3/R0)<20%)		
Cn1ccc2c(Oc3ccccc3F)cccc21 [I-267]	> 3	C (an affinity (R3/R0)<20%)		
Cn1c(CO)cc2c(Oc3cccc(Cl)c3)cccc21 [I-271]	> 3	C (an affinity (R3/R0)<20%)		
Fc1ccccc1Oc1cccc2[nH]ccc12 [I-288, 4-(2-fluorophenoxy)-1H-indole]	100 to 300	C (an affinity (R3/R0)<20%)		
OCc1cc2c(Br)cc(Oc3ccccc3)cc2[nH]1 [I-290, (4-Bromo-6-phenoxy-1H-indol-2-yl)methanol]	10 to 100	B (an affinity (R3/R0) between 100% and 20%)		
OCc1cc2c(Oc3ccccc3)cc(Cl)cc2[nH]1 [I-291, (6-Chloro-4-phenoxy-1H-indol-2-yl)methanol]	10 to 100	C (an affinity (R3/R0)<20%)		
OCc1cc2c(Oc3ccccc3)c(Cl)ccc2[nH]1 [I-293, (5-chloro-4-phenoxy-1H-indol-2-yl)methanol]	100 to 300	C (an affinity (R3/R0)<20%)	~83.8	capable of inhibiting mTORC1 activity
c1ccc(Oc2cccc3[nH]ccc23)cc1 [I-296, 4-phenoxy-1H-indole]	100 to 300	C (an affinity (R3/R0)<20%)		

Further lines, results first:

IC50 [1, 3] [µM]	ASMS (R3/R0) [2]	IC50 ([1]; LanthaScreen variation, Terbium labeled T46p4E-BP1 specific antibody, read-out: IC50 in the Rheb-IVK) [µM]	inhibition of mTORC1 activity in the Rheb-IVK ([1]; Western blot variation, anti 4E-BP1 and anti T37/46p4E-BP1)	Compound
< 10	A (an affinity (R3/R0)>100%)			Brc1cc(Oc2ccccc2)cc2c1ccn2Cc1ccc(-c2nn[nH]n2)cc1 [I-220, 1-(4-(2H-tetrazol-5-yl)benzyl)-4-bromo-6-phenoxy-1H-indole]
10 to 100	C (an affinity (R3/R0)<20%)			NC(=O)CCc1cc2c(Oc3ccccc3)c(Cl)ccc2[nH]1 [I-247, 3-(5-chloro-4-phenoxy-1H-indol-2-yl)propanamide]
10 to 100	C (an affinity (R3/R0)<20%)			Clc1ccc2[nH]ccc2c1Oc1ccccc1 [I-257, 5-chloro-4-phenoxy-1H-indole]
100 to 300	C (an affinity (R3/R0)<20%)			OCc1cc2c(Oc3cccc(Cl)c3)cccc2[nH]1 [I-275, (4-(3-chlorophenoxy)-1H-indol-2-yl)methanol]
100 to 300	C (an affinity (R3/R0)<20%)			Fc1cccc(Oc2cccc3[nH]ccc23)c1 [I-282, 4-(3-fluorophenoxy)-1H-indole]
100 to 300	C (an affinity (R3/R0)<20%)			Clc1ccc(Oc2cccc3[nH]ccc23)cc1 [I-283, 4-(4-chlorophenoxy)-1H-indole]
> 100	C (an affinity (R3/R0)<20%)			Cn1ccc2c(OC3CCNCC3)cccc21 [I-295]
